Columns and labels:
Type in all cases: in vivo
Echinochloa crus-galli [1] = test: Test Example 11: herbicidal effect test by soil treatment in paddy field; details: 120 g/10a active ingredient, 14 days after treatment
Method in brief: (§1)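 Weed suppression rate (%) was calculated as (1 − mean treated dry weight / mean untreated dry weight) × 100 at 14 days after treatment, two replicates per plot. Seeds were sown at 0–1 cm in flooded (about 3 cm) puddled paddy soil and treated immediately at 120 g active ingredient per 10 are.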

Lindernia pyxidaria [2] = test: as above; details: 120 g/10a active ingredient, 14 days after treatment
Method in brief: as §1

Monochoria vaginalis [3] = test: as above; details: 120 g/10a active ingredient, 14 days after treatment
Method in brief: as §1

Scirpus juncoides [4] = test: as above; details: 120 g/10a active ingredient, 14 days after treatment
Method in brief: as §1

Echinochloa crus-galli [5] = test: Test Example 12: herbicidal effect test by treatment during growing period in paddy field; details: 120 g/10a; treatment seven days after sowing in flooded paddy pot; assessed 14 days after treatment
Method in brief: (§2)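 Growing-period treatment in flooded paddy pots: the diluted emulsifiable concentrate was dripped in at 120 g a.i. per 10 are seven days after seeding. Inhibition is expressed as percent reduction in dry weight versus untreated pots, measured 14 days later in duplicate.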

Lindernia pyxidaria [6] = test: as above; details: 120 g/10a; treatment seven days after sowing in flooded paddy pot; assessed 14 days after treatment
Method in brief: as §2

Monochoria vaginalis [7] = test: as above; details: 120 g/10a; treatment seven days after sowing in flooded paddy pot; assessed 14 days after treatment
Method in brief: as §2

Scirpus juncoides [8] = test: as above; details: 120 g/10a; treatment seven days after sowing in flooded paddy pot; assessed 14 days after treatment
Method in brief: as §2

Amaranthus viridis [9] = test: Test Example 13: herbicidal effect test by soil treatment in upland field; details: 120 g/10a, 14 days after treatment
Method in brief: (§3)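 Suppression rate (%) is calculated from mean plant dry weight in treated versus untreated plots, 14 days after treatment, with duplicate plots per concentration. Seeds (20 per species) are mixed into the surface centimetre of alluvial soil, and the diluted emulsifiable concentrate is sprayed onto the soil the following day at 120 g a.i. per 10 are.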

Chenopodium album [10] = test: as above; details: 120 g/10a, 14 days after treatment
Method in brief: as §3

Echinochloa crus-galli [11] = test: as above; details: 120 g/10a, 14 days after treatment
Method in brief: as §3

crabgrass [12] = test: as above; details: 120 g/10a, 14 days after treatment
Method in brief: as §3

Chenopodium album [13] = test: Test Example 14: herbicidal effect test by foliage treatment in upland field; details: 7 days after sowing, 120 g/10a, 14 days after treatment
Method in brief: (§4)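 Dose: 120 g a.i. per 10 are, sprayed in 100 L water per 10 are onto pots seven days post-sowing in alluvial soil. After 14 days, weed dry weight relative to untreated plots gave suppression rate (%); duplicate plots per concentration.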

crabgrass [14] = test: as above; details: 7 days after sowing, 120 g/10a, 14 days after treatment
Method in brief: as §4

Amaranthus viridis [15] = test: as above; details: 7 days after sowing, 120 g/10a, 14 days after treatment
Method in brief: as §4

Echinochloa crus-galli [16] = test: as above; details: 7 days after sowing, 120 g/10a, 14 days after treatment
Method in brief: as §4

| SMILES | Weed suppression rate (%) Echinochloa crus-galli (Echinochloa crus-galli [1]) [%] | Weed suppression rate (%) Lindemia pyxidaria (Lindernia pyxidaria [2]) [%] | Weed suppression rate (%) Monochoria vaginalis (Monochoria vaginalis [3]) [%] | Weed suppression rate (%) Scirpus juncoides (Scirpus juncoides [4]) [%] | Weed suppression rate (%) Echinochloa crus-galli (Echinochloa crus-galli [5]) [%] | Weed suppression rate (%) Lindemia pyxidaria (Lindernia pyxidaria [6]) [%] | Weed suppression rate (%) Monochoria vaginalis (Monochoria vaginalis [7]) [%] | Weed suppression rate (%) Scirpus juncoides (Scirpus juncoides [8]) [%] | herbicidal effect, Amaranthus viridis (Amaranthus viridis [9]) [%] | herbicidal effect, Chenopodium album (Chenopodium album [10]) [%] | herbicidal effect, Echinochloa crus-galli (Echinochloa crus-galli [11]) [%] | herbicidal effect, Crabgrass (crabgrass [12]) [%] | herbicidal effect, Chenopodium album (Chenopodium album [13]) [%] | herbicidal effect, Crabgrass (crabgrass [14]) [%] | herbicidal effect, Amaranthus viridis (Amaranthus viridis [15]) [%] | herbicidal effect, Echinochloa crus-galli (Echinochloa crus-galli [16]) [%] |
| --- | --- | --- | --- | --- | --- | --- | --- | --- | --- | --- | --- | --- | --- | --- | --- | --- |
| CC(C)N(C(=O)n1cnn(S(=O)(=O)c2cccs2)c1=O)c1ccc(F)cc1Cl [Compound 11-1029] | 90 | 80 | 80 | 90 | 90 | 80 | 80 | 90 | 90 | 80 | 80 | 90 | 80 | 90 | 90 | 80 |
| CC(C)N(C(=O)n1cnn(S(=O)(=O)N(C)C)c1=O)c1ccc(F)cc1F [Compound 11-1064] | 100 | 100 | 100 | 100 | 100 | 90 | 90 | 90 | 90 | 90 | 100 | 100 | 80 | 90 | 70 | 90 |
| CC(C)N(C(=O)n1cnn(S(=O)(=O)C2CC2)c1=O)c1ccccc1F [Compound 11-160] | 100 | 90 | 70 | 90 | 100 | 90 | 70 | 90 | 90 | 80 | 80 | 90 | 80 | 90 | 90 | 80 |
| CCN(CC)C(=O)n1cnn(S(=O)(=O)c2ccccc2Cl)c1=O [Compound 11-500] | 90 | 50 | 50 | 50 | 80 | 60 | 60 | 60 | 0 | 0 | 80 | 80 | 50 | 40 | 40 | 40 |
| CCN(CC)C(=O)n1cnn(S(=O)(=O)c2ccc(F)cc2)c1=O [Compound 11-463] | 90 | 50 | 50 | 40 | 90 | 80 | 80 | 80 | 80 | 100 | 90 | 90 | 0 | 60 | 40 | 70 |
| CC(C)N(C(=O)n1cnn(S(C)(=O)=O)c1=O)c1ccc(F)cc1Cl [Compound 11-19] | 90 | 80 | 80 | 90 | 90 | 80 | 80 | 90 | 90 | 80 | 80 | 90 | 80 | 90 | 90 | 80 |
| CC(C)N(C(=O)n1cnn(S(=O)(=O)C2CCC2)c1=O)c1ccc(F)cc1F [Compound 11-258] | 100 | 100 | 100 | 100 | 90 | 90 | 90 | 90 | 100 | 100 | 100 | 100 | 80 | 90 | 90 | 80 |
| CCS(=O)(=O)n1ncn(C(=O)N(c2c(F)cccc2F)C(C)C)c1=O [Compound 11-1150] | 100 | 100 | 70 | 90 | 100 | 100 | 90 | 60 | 90 | 80 | 100 | 100 | 60 | 100 | 50 | 100 |
| CC(C)N(C(=O)n1cnn(S(=O)(=O)CCl)c1=O)c1ccc(F)cc1F [Compound 11-109] | 100 | 100 | 90 | 90 | 100 | 100 | 90 | 90 | 90 | 100 | 100 | 100 | 40 | 90 | 40 | 90 |
| CC(C)N(C(=O)n1cnn(S(C)(=O)=O)c1=O)c1cccc(F)c1F [Compound 11-11] | 100 | 100 | 100 | 100 | 100 | 80 | 100 | 100 | 30 | 30 | 80 | 90 | 70 | 100 | 60 | 100 |

Reference: patent US11076595B2, “1-(n,n-disubstituted carbamoyl) 4-(substituted sulfonyl)triazolin-5-one derivative, 4-(n,n-disubstituted carbamoyl) 1-(substituted sulfonyl)triazolin-5-one derivative, and herbicide containing said derivative as active ingredient” (HOKKO CHEMICAL INDUSTRY CO., LTD., priority 2017, dated 2021)
